{"source": "paper PMC6395679", "about": "“Efficient cell penetration and delivery of peptide nucleic acids by an argininocalix[4]arene” (Scientific Reports, 2019)", "key": {"[1]": {"tested_on": "miR-221-3p", "experiment": "RT-qPCR hybridization to miR-221-3p probe", "assay_type": "cell-based, human", "conditions": "U251 cells, 48 hours, calixarene 1 at 2.5 μM, PNAs at 2 μM", "procedure": "The human glioma U251 cells[50] were cultured in humidified atmosphere of 5% CO2/air in RPMI-1640 medium (Gibco, Life Technologies, Monza, Italy) supplemented with 10% (v/v) fetal bovine serum (FBS, Biowest, Nuaillé, France), 100 units/mL penicillin and 100 µg/mL streptomycin (Pen-Strep, Sigma-Aldrich, Saint Louis, Missouri, USA). All PNA transfection procedures were performed under the conditions described here below. Briefly, a mixture constituted by RPMI-1640 medium containing calixarene 1 at 2.5 µM final concentration, and 2 µM PNA was prepared and incubated for 20 minutes at room temperature, without serum. After the incubation, 10% (v/v) of FBS was added. […]\nFor miRNAs quantification, obtained RNA was reverse transcribed using TaqMan MicroRNA Reverse Transcription Kit (Applied Biosystems, Foster City, CA, USA) and miRNA specific stem-loop primer (hsa-miR-96-5p, ID: 000186; hsa-miR-155-5p, ID: 002623; hsa-miR-210-3p, ID: 000512; hsa-miR-221-3p, ID: 000524). Reverse transcription quantitative polymerase-chain reaction (RT-qPCR) was performed according to the manufacturer’s protocols and as indicated elsewhere. […] The relative expression was calculated using the comparative cycle threshold method (ΔΔCT) and U6 snRNA (hsa U6 snRNA, ID:001973) and hsa-let-7c (hsa-let-7c, ID:000379) as endogenous controls. […]"}, "[2]": {"tested_on": "U251 cells", "experiment": "Effects on cell growth (cell number/ml, Z2 Coulter Counter)", "assay_type": "cell-based, human", "conditions": "after 72 hours of cell culture, effect of 1 significant only at 10 µM, lipofectamine within 0.5–12 μl/ml", "procedure": "(§1) Cell viability after the transfection with 1 was evaluated with Muse Count & Viability Kit (Millipore, Billerica, Massachusetts, USA), using Muse Cell Analyser (Millipore, Billerica, Massachusetts, USA). To perform analysis, 50 µL of suspension cells were added to 225 µL of Muse Count & Viability Reagent, the solution was incubated at room temperature for 5 minutes, protected from the light and then 1 × 10^3 events were analysed using Muse Cell Analyser (Millipore, Billerica, Massachusetts, USA). The effects on cell growth were studied by determining the cell number/ml using a Z2 Coulter Counter (Coulter Electronics, Hialeah, FL, USA). The effects of calixarene 1 on cell viability, cell growth and cell morphology were compared to those of Lipofectamine RNAiMAX (Invitrogen, Monza, Italy).\n(§2) Comparison was done with the effects of lipofectamine analyzed after 72 hours of cell culture. […] These findings are in agreement with the cell morphology profile shown in Fig. 2(D–F) and determined by microscopic inspection after 72 hours of cell culture in the presence of 2.5 µM calixarene 1 (Fig. 2E), 3μL/mL lipofectamine (Fig. 2F) or in the absence of both the delivery systems (Fig. 2D)."}, "[3]": {"tested_on": "Fl-a221PNA", "experiment": "Fluorescence titration of Fl-a221PNA with calixarene 1", "assay_type": "binding", "conditions": "Fl-a221PNA 2 μM, HEPES 16 mM, NaCl 40 mM, pH 7.4, λex = 494 nm, 1 added stepwise up to 9.9 μM", "procedure": "For a fast evaluation of the interaction with PNA, fluorescently labelled Fl-a221PNA (Fl: Fluorescein) was diluted to a final concentration of 2 μM in buffer (HEPES 16 mM, NaCl 40 mM, pH 7.4) and placed in a fluorescence cuvette; to this, a concentrated solution of the argininocalix[4]arene 1 (100 μM in EtOH/H2O/DMSO = 2/2/1 v/v/v) was added stepwise (up to a final concentration of 9.9 μM of calixarene), and changes in the fluorescein emission intensity (with λex = 494 nm) were measured after each addition. Correction for lamp fluctuation was performed by measuring the fluorescence of a standard 2 μM fluorescein solution after each spectra; this correction and that for dilution were performed using the formula: Fi, corr = Fi,obs × (Fin /Fi) × (Vi /Vin), where Fi: intensity at the ith point and Fin: initial intensity of the fluorescein standard, Vi: total volume at the ith point and Vin: initial volume.\nIn order to rule out that the observed delivery was solely due to permeabilization of cells caused by the argininocalixarene, without interaction between the carrier and the PNA, Fl-a221PNA was titrated in vitro in buffer by adding 1 and measuring the changes in fluorescence emission (Fig. 4). […] A slight shift of the fluorescence maximum (from 519 to 523 nm) was also observed, consistent with a more polar microenvironment generated by the cationic calixarene."}, "[4]": {"tested_on": "U251 cells", "experiment": "Cell morphology by microscopic inspection", "assay_type": "cell-based, human", "conditions": "72 hours of cell culture, 2.5 µM calixarene 1 or 3μL/mL lipofectamine", "procedure": "as §1, §2"}, "[5]": {"tested_on": "U251 cells", "experiment": "Cell viability assay (Muse Count & Viability Kit)", "assay_type": "cell-based, human", "conditions": "in contact for all the treatment time", "procedure": "The human glioma U251 cells[50] were cultured in humidified atmosphere of 5% CO2/air in RPMI-1640 medium (Gibco, Life Technologies, Monza, Italy) supplemented with 10% (v/v) fetal bovine serum (FBS, Biowest, Nuaillé, France), 100 units/mL penicillin and 100 µg/mL streptomycin (Pen-Strep, Sigma-Aldrich, Saint Louis, Missouri, USA). All PNA transfection procedures were performed under the conditions described here below. Briefly, a mixture constituted by RPMI-1640 medium containing calixarene 1 at 2.5 µM final concentration, and 2 µM PNA was prepared and incubated for 20 minutes at room temperature, without serum. After the incubation, 10% (v/v) of FBS was added. Cell culture medium was removed and replaced with the transfection mixture, which was maintained in contact with cells until the end of the treatment.\nas §1\nOne of the major issues associated with the use of commercial available vehicles is the high toxicity of these compounds. For such reason 1 was first evaluated for its effect on cell viability when used to transfect molecules. […] Viability profile was determined at three different time points, 24, 48 and 72 hours after transfection, with three different concentrations of […], 1.25, 2.5, and 10 μM. […]"}}}
{"substance": "tetraargininocalix[4]arene [compound 1]", "values": [{"measurement": "effect on miR-221-3p hybridization signal", "setting": "[1]", "result": "no effects"}, {"measurement": "effect on cell proliferation (cell growth)", "setting": "[2]", "result": "minor"}, {"measurement": "concentration of carrier at saturation of fluorescence quenching", "setting": "[3]", "result": 2.5, "unit": "µM"}, {"measurement": "effect on cell morphology", "setting": "[4]", "result": "does not affect cell morphology"}, {"measurement": "percentage of total live cells", "setting": "[5]; 1.25 µM of 1, 24 hours after the transfection", "result": "no differences"}, {"measurement": "percentage of total live cells", "setting": "[5]; 2.5 µM of 1, 24 hours after the transfection", "result": "no differences"}, {"measurement": "live cells percentage", "setting": "[5]; 10 µM of 1, 24 hours after the transfection", "result": "slight decrease"}]}
